Test results: patent US12459951B2, “Compounds that interact with RAS superfamily proteins for treatment of cancers, inflammatory diseases, rasopathies, and fibrotic disease” (SHY Therapeutics, LLC, priority 2022, dated 2025)

Tests used:
[1] = test system: Smad2/Smad3 phosphorylation; test: Phospho-Smad2/3 Inhibition Assay (western blot), Panc-1; format: cell-based, human; details: at 10 μM, Panc-1 pancreatic cancer cell line; starred symbols = activation
In short: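 Panc-1 cells (KRas G12D), starved overnight in 0.5% FBS, treated 3 h at 37° C with compound at 10 μM final (0.3% DMSO) or serial dilutions for IC50, then stimulated with 10 ng/ml TGF-b1 for 1 h. Phospho-Smad2 (Ser465/467) and phospho-Smad3 (Ser423/425) detected by western blot.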

Akt phosphorylation = test: Akt Phosphorylation Assay (western blot), Panc-1; format: cell-based, human; details: at 10 μM, * = activation
In short: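 Panc-1 (KRas G12D) cells were treated with compound at 10 μM final (0.3% DMSO) for 6 h at 37 °C, or with serial dilutions for IC50. Cells were either serum-starved overnight in 0.5% FBS and then stimulated with 1.5 ng/ml EGF for 15 min, or kept in 10% FBS without stimulation. Akt Ser473 phosphorylation in lysates was read by western blot.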

IL6 = test: IL-6 Quantification Assay (ELISA), LPS-stimulated RAW 264.7; format: cell-based; design: inhibition: dose or concentration left out as unconfirmed; details: Mus musculus, RAW264.7; read-out: IL-6: % inh.

`CO[C@H]1CC[C@H](Nc2nc(-c3nccn3C)nn3cc(-c4cccnc4)c(-c4ccccc4)c23)C1` (racemic) [Compound 194, rac N-((1S,3S)-3-Methoxycyclopentyl)-2-(1-methyl-1H-imidazol-2-yl)-5-phenyl-6-(pyridin-3-yl)pyrrolo[2,1-f][1,2,4]triazin-4-amine] was tested, and the “% inh of Smad2/3 phosphorylation in Panc-1” value [1] was “A (A = 1-25% inhibition)”, the “% inh of Akt phosphorylation in Panc-1” value (Akt phosphorylation) was “D* (85-100% activation)” and the inhibition (IL6) was 75 to 100%.
In the case of `COc1cccc(-c2cn3nc(-c4nccn4C)nc(N[C@H]4C[C@H](OC)C4)c3c2-c2ccccc2)c1C` [Compound 209, 6-(3-methoxy-2-methylphenyl)-N-((1r,3r)-3-methoxycyclobutyl)-2-(1-methyl-1H-imidazol-2-yl)-5-phenylpyrrolo[2,1-f][1,2,4]triazin-4-amine], the “% inh of Smad2/3 phosphorylation in Panc-1” value [1] is reported as “D (D = 76-100% inhibition)”, the “% inh of Akt phosphorylation in Panc-1” value (Akt phosphorylation) is reported as “D (85-100% inhibition)” and the inhibition (IL6) is reported as 75 to 100%.
With `COCCNC(=O)c1c(-c2ccn(C)n2)cn2nc(-c3nccn3C)nc(Nc3cc(OC)ccn3)c12` [Compound 176, N-(2-Methoxyethyl)-4-((4-methoxypyridin-2-yl)amino)-2-(1-methyl-1H-imidazol-2-yl)-6-(1-methyl-1H-pyrazol-3-yl)pyrrolo[2,1-f][1,2,4]triazine-5-carboxamide] the “% inh of Smad2/3 phosphorylation in Panc-1” value [1] was “B (B = 26-45% inhibition)”, the “% inh of Akt phosphorylation in Panc-1” value (Akt phosphorylation) was “D* (85-100% activation)” and the inhibition (IL6) was 75 to 100%.
`CO[C@H]1C[C@@H](Nc2nc(-c3nccn3C)nn3cc(-c4ccncc4)c(-c4ccccc4)c23)C1` [Compound 198, N-((1s,3s)-3-Methoxycyclobutyl)-2-(1-methyl-1H-imidazol-2-yl)-5-phenyl-6-(pyridin-4-yl)pyrrolo[2,1-f][1,2,4]triazin-4-amine] was tested, and the “% inh of Smad2/3 phosphorylation in Panc-1” value [1] was “A (A = 1-25% inhibition)”, the “% inh of Akt phosphorylation in Panc-1” value (Akt phosphorylation) was “C (50-84% inhibition)” and the inhibition (IL6) was 25 to 49%.
`CO[C@H]1C[C@H](Nc2nc(-c3nccn3C)nn3cc(-c4cccc(OCCN)c4)c(-c4ccccc4)c23)C1` [Compound 205, 6-(3-(2-Aminoethoxy)phenyl)-N-((1r,3r)-3-methoxycyclobutyl)-2-(1-methyl-1H-imidazol-2-yl)-5-phenylpyrrolo[2,1-f][1,2,4]triazin-4-amine] was tested, and the “% inh of Smad2/3 phosphorylation in Panc-1” value [1] was “D (D = 76-100% inhibition)” and the “% inh of Akt phosphorylation in Panc-1” value (Akt phosphorylation) was “C* (46-84% activation)”.
With `Cc1c(-c2ccn(C)n2)cn2nc(-c3nccn3C)nc(Nc3ccc(-n4ccnc4C)cn3)c12` [Compound 243, 5-Methyl-N-(5-(2-methyl-1H-imidazol-1-yl)pyridin-2-yl)-2-(1-methyl-1H-imidazol-2-yl)-6-(1-methyl-1H-pyrazol-3-yl)pyrrolo[2,1-f][1,2,4]triazin-4-amine] the “% inh of Smad2/3 phosphorylation in Panc-1” value [1] was “A* (A* = 1-25% activation)”, the “% inh of Akt phosphorylation in Panc-1” value (Akt phosphorylation) was “D* (85-100% activation)” and the inhibition (IL6) was 0%.
With `COCCNC(=O)c1c(-c2ccn(C)n2)cn2nc(-c3nccn3C)nc(N[C@H]3CC[C@H](OC)C3)c12` (racemic) [Compound 183, rac 4-(((1S,3S)-3-Methoxycyclo-pentyl)amino)-N-(2-methoxyethyl)-2-(1-methyl-1H-imidazol-2-yl)-6-(1-methyl-1H-pyrazol-3-yl)pyrrolo[2,1-f][1,2,4]triazine-5-carboxamide] the “% inh of Smad2/3 phosphorylation in Panc-1” value [1] was “D* (D* = 76-100% activation)”, the “% inh of Akt phosphorylation in Panc-1” value (Akt phosphorylation) was “A (1-25% inhibition)” and the inhibition (IL6) was 25 to 49%.
In the case of `CO[C@H]1C[C@H](Nc2nc(-c3nccn3C)nn3cc(-c4cnccc4C)c(-c4ccccc4)c23)C1` [Compound 218, N-((1r,3r)-3-Methoxycyclobutyl)-2-(1-methyl-1H-imidazol-2-yl)-6-(4-methylpyridin-3-yl)-5-phenylpyrrolo[2,1-f][1,2,4]triazin-4-amine], the “% inh of Smad2/3 phosphorylation in Panc-1” value [1] is reported as “B* (B* = 26-45% activation)”, the “% inh of Akt phosphorylation in Panc-1” value (Akt phosphorylation) is reported as “D* (85-100% activation)” and the inhibition (IL6) is reported as 1 to 24%.
For `CO[C@H]1C[C@H](Nc2nc(-c3nccn3C)nn3cc(-c4ccc(CCN)cc4)c(-c4ccccc4)c23)C1.Cl` [Compound 207, 6-(4-(2-Aminoethyl)phenyl)-N-((1r,3r)-3-methoxycyclobutyl)-2-(1-methyl-1H-imidazol-2-yl)-5-phenylpyrrolo[2,1-f][1,2,4]triazin-4-amine hydrochloride salt], the “% inh of Smad2/3 phosphorylation in Panc-1” value [1] was “D (D = 76-100% inhibition)”, the “% inh of Akt phosphorylation in Panc-1” value (Akt phosphorylation) was “C* (46-84% activation)” and the inhibition (IL6) was 75 to 100%.
With `CO[C@H]1CC[C@@H](Nc2nc(-c3nccn3C)nn3cc(-c4ccncc4)c(-c4ccccc4)c23)C1` (racemic) [Compound 200, rac N-((1R,3S)-3-Methoxycyclopentyl)-2-(1-methyl-1H-imidazol-2-yl)-5-phenyl-6-(pyridin-4-yl)pyrrolo[2,1-f][1,2,4]triazin-4-amine] the “% inh of Smad2/3 phosphorylation in Panc-1” value [1] was “A (A = 1-25% inhibition)”, the “% inh of Akt phosphorylation in Panc-1” value (Akt phosphorylation) was “B (26-49% inhibition)” and the inhibition (IL6) was 1 to 24%.
In the case of `CO[C@H]1C[C@H](Nc2nc(-c3nccn3C)nn3cc(-c4ccc(OCCN)cc4)c(-c4ccccc4)c23)C1.Cl` [Compound 208, 6-(4-(2-Aminoethoxy)phenyl)-N-((1r,3r)-3-methoxycyclobutyl)-2-(1-methyl-1H-imidazol-2-yl)-5-phenylpyrrolo[2,1-f][1,2,4]triazin-4-amine hydrochloride salt], the “% inh of Smad2/3 phosphorylation in Panc-1” value [1] is reported as “D (D = 76-100% inhibition)”, the “% inh of Akt phosphorylation in Panc-1” value (Akt phosphorylation) is reported as “D* (85-100% activation)” and the inhibition (IL6) is reported as 75 to 100%.
In the case of `COC[C@@H]1CC[C@@H]1CNc1nc(-c2ccccn2)nn2cc(-c3ccn(C(C)C)n3)c(C)c12` (racemic) [Compound 11, rac 6-(1-Isopropyl-1H-pyrazol-3-yl)-N-(((1S,2R)-2-(methoxymethyl)cyclobutyl)methyl)-5-methyl-2-(pyridin-2-yl)pyrrolo[2,1-f][1,2,4]triazin-4-amine], the “% inh of Smad2/3 phosphorylation in Panc-1” value [1] is reported as 0 (0 = 0% inhibition), the “% inh of Akt phosphorylation in Panc-1” value (Akt phosphorylation) is reported as 0 (0% inhibition) and the inhibition (IL6) is reported as 0%.
`CO[C@H]1C[C@H](Nc2nc(-c3nccn3C)nn3cc(-c4cccc(CN)c4)c(-c4ccccc4)c23)C1` [Compound 204, 6-(3-(aminomethyl)phenyl)-N-((1r,3r)-3-methoxycyclobutyl)-2-(1-methyl-1H-imidazol-2-yl)-5-phenylpyrrolo[2,1-f][1,2,4]triazin-4-amine] was tested, and the “% inh of Smad2/3 phosphorylation in Panc-1” value [1] was “A (A = 1-25% inhibition)”, the “% inh of Akt phosphorylation in Panc-1” value (Akt phosphorylation) was “C* (46-84% activation)” and the inhibition (IL6) was 75 to 100%.
`COc1cccc(Nc2nc(-c3ccccn3)nn3cc(-c4ccn(C(C)C)n4)c(C)c23)n1` [Compound 14, 6-(1-Isopropyl-1H-pyrazol-3-yl)-N-(6-methoxypyridin-2-yl)-5-methyl-2-(pyridin-2-yl)pyrrolo[2,1-f][1,2,4]triazin-4-amine] was tested, and the “% inh of Smad2/3 phosphorylation in Panc-1” value [1] was 0 (0 = 0% inhibition), the “% inh of Akt phosphorylation in Panc-1” value (Akt phosphorylation) was 0 (0% inhibition) and the inhibition (IL6) was 50 to 74%.
With `Cc1c(-c2ccn(C)n2)cn2nc(-c3nccn3C)nc(Nc3cc4c(cn3)CCO4)c12` [Compound 221, N-(5-Methyl-2-(1-methyl-1H-imidazol-2-yl)-6-(1-methyl-1H-pyrazol-3-yl)pyrrolo[2,1-f][1,2,4]triazin-4-yl)-2,3-dihydrofuro[3,2-c]pyridin-6-amine] the “% inh of Smad2/3 phosphorylation in Panc-1” value [1] was “A (A = 1-25% inhibition)”, the “% inh of Akt phosphorylation in Panc-1” value (Akt phosphorylation) was “D* (85-100% activation)” and the inhibition (IL6) was 25 to 49%.
`Cc1cnc2c(c1)CCN2c1nc(-c2nccn2C)nn2cc(-c3ccn(C)n3)c(C)c12` [Compound 239, 5-Methyl-2-(1-methyl-1H-imidazol-2-yl)-6-(1-methyl-1H-pyrazol-3-yl)-4-(5-methyl-2,3-dihydro-1H-pyrrolo[2,3-b]pyridin-1-yl)pyrrolo[2,1-f][1,2,4]triazine] was tested, and the “% inh of Smad2/3 phosphorylation in Panc-1” value [1] was 0 (0 = 0% inhibition), the “% inh of Akt phosphorylation in Panc-1” value (Akt phosphorylation) was “D* (85-100% activation)” and the inhibition (IL6) was 50 to 74%.
For `CO[C@H]1C[C@H](Nc2nc(-c3nccn3C)nn3cc(-c4ccncc4)c(-c4ccccc4)c23)C1` [Compound 199, N-((1r,3r)-3-Methoxycyclobutyl)-2-(1-methyl-1H-imidazol-2-yl)-5-phenyl-6-(pyridin-4-yl)pyrrolo[2,1-f][1,2,4]triazin-4-amine], the “% inh of Smad2/3 phosphorylation in Panc-1” value [1] was “B (B = 26-45% inhibition)”, the “% inh of Akt phosphorylation in Panc-1” value (Akt phosphorylation) was “A (1-25% inhibition)” and the inhibition (IL6) was 75 to 100%.
In the case of `COc1ccnc(Nc2nc(-c3nccn3C)nn3cc(-c4ccn(C)n4)c(C(=O)N4CCOCC4)c23)c1` [Compound 179, (4-((4-Methoxypyridin-2-yl)amino)-2-(1-methyl-1H-imidazol-2-yl)-6-(1-methyl-1H-pyrazol-3-yl)pyrrolo[2,1-f][1,2,4]triazin-5-yl)(morpho-lino)methanone], the “% inh of Smad2/3 phosphorylation in Panc-1” value [1] is reported as “C* (C* = 46-75% activation)”, the “% inh of Akt phosphorylation in Panc-1” value (Akt phosphorylation) is reported as “D* (85-100% activation)” and the inhibition (IL6) is reported as 50 to 74%.
